Reference: patent US8541584B2, “3-(1,2,3-triazol-4-yl) pyrrolo [2,3-b] pyridine derivatives” (Merck Patent GmbH, priority 2009, dated 2013)

Tests used:
PDK1 = biological target: T1, PDK1 (Homo sapiens, UniProt O15530); assay: Test for the inhibition of PDK1 (384-well flashplate, 33P-ATP); assay type: biochemical; conditions: His6-PDK1 3.4 nM, 4 μM ATP, 30° C., 60 min
T1 construct: His6 (N)
T1 sequence (O15530 51-556 limits assumed): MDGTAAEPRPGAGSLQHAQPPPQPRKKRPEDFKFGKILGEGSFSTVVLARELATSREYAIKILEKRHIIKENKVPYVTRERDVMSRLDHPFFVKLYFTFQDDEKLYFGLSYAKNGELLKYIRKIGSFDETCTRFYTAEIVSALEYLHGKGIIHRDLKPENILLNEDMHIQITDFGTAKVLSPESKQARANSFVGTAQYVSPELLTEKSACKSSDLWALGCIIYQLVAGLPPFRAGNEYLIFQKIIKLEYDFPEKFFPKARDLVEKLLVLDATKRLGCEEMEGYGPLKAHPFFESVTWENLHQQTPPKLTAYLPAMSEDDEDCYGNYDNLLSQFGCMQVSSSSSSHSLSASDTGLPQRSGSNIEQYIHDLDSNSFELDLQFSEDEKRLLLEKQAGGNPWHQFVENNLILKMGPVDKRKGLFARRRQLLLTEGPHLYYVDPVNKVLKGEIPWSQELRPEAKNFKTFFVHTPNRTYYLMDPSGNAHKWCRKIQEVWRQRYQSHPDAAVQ
Procedure: 4.0 Test for the Inhibition of PDK1
The experimental batches are carried out in a flashplate system with 384 wells/microtitration plate.
In each case, the PDK1 sample His6-PDK1(1-50)(3.4 nM), the PDK1 substrate biotin-bA-bA-[…] (400 nM), 4 μM ATP (with 0.2 μCi of ^33P-ATP/well) and the test substance in 50 μl of conventional experimental solution per well are incubated at 30° C. for 60 min. The test substances are employed in corresponding concentrations (if desired in a dilution series). The control is carried out without test substance. The reaction is stopped using standard methods and washed. The activity of the kinase is measured via the incorporated radioactivity in top count. In order to determine the non-specific kinase reaction (blank value), the experimental batches are carried out in the presence of 100 nM staurosporin.
The radioactivity (decompositions per minute) of the blank value (no use of test substance in the presence of staurosporin) is subtracted from all other radioactivity values. The controls (kinase activity without test substance) are set equal to 100 percent and all other radioactivity values (after subtracting the blank value) are expressed set in relation thereto (for example in % of the control).
IC50 values (50% inhibition) are determined with the aid of statistics programmes, such as, for example, RS1.

[1] = test system: PDK1 kinase activity (P-T308-PKB) in PC3 cells; assay: Cellular testing of PDK1 kinase inhibitors (Luminex assay, P-T308-PKB in PC3 cells); assay type: cell-based; conditions: Homo sapiens, PC-3, 0.5 h, serum-free, 30 min with test substance
Procedure: Description of the Method for Cellular Testing of PDK1 Kinase Inhibitors
The cellular assay for determination of the PDK1 kinase activity is performed as Luminex assay in the 96-well format. PC3 cells are sown at 20,000 cells per well in 100 μl of medium (45% of […]/45% of Ham's F12/10% of FCS) and incubated under serum-free conditions on the following day for 30 min with serial dilution of the test substance (7 concentrations). The cells are subsequently lysed using 90 μl of lysis buffer (20 mM Tris/HCl pH 8.0, 150 mM NaCl, 1% of NP40, 10% of glycerol, 1% of phosphatase inhibitor I, 1% of phosphatase inhibitor II, 0.1% of protease inhibitor Cocktail III, 0.01% of benzonase) per well, and the lysates are separated off from insoluble cell constituents by means of centrifugation through a 96-well filter plate (0.65 μm). The lysates are incubated overnight at 4° C. with shaking with Luminex beads to which an anti-total PKB antibody has been coupled. Detection is carried out on the following day by addition of a P-T308-PKB antibody and a species-specific PE-labelled secondary antibody. The determination of P-T308-PKB is carried out by measurement in the Luminex100 instrument by determination of 100 events per cavity in a measurement time of 60 sec. As pharmacological blank, the signals obtained from cells which have been treated with 10 μM staurosporin are subtracted from all other batches. The control value used for maximum phosphorylation of PKB on T308 are the signals from cells which have been treated only with the solvent (0.3% of DMSO). The values of the batches treated with test substance are calculated from this as percent of control, and IC50 values are determined by means of RS1.

Compound	IC50 (PDK1) [µM]	IC50 [1] [µM]
CC(c1cccc(C(F)(F)F)c1)n1cc(-c2c[nH]c3ncc(-c4cnn(C)c4)cc23)nn1 (centres unmarked) [Compound A19, 5-(1-Methyl-1H-pyrazol-4-yl)-3-{1-[1-(3-trifluoromethylphenyl)ethyl]-1H-1,2,3-triazol-4-yl}-1H-pyrrolo[2,3-b]pyridine]	0.0005 to 1	1 to 10
CC(c1ccccc1)n1cc(-c2c[nH]c3ncc(-c4cnn(C)c4)cc23)nn1 (centres unmarked) [Compound A8, 5-(1-methyl-1H-pyrazol-4-yl)-3-[1-(1-phenylethyl)-1H-1,2,3-triazol-4-yl]-1H-pyrrolo[2,3-b]pyridine]	0.0005 to 1	1 to 10
Cn1cc(-c2cnc3[nH]cc(-c4cn(Cc5c(F)cccc5C(F)(F)F)nn4)c3c2)cn1 [Compound A24, 3-[1-(2-Fluoro-6-trifluoromethylbenzyl)-1H-1,2,3-triazol-4-yl]-5-(1-methyl-1H-pyrazol-4-yl)-1H-pyrrolo[2,3-b]pyridine]	0.0005 to 1	1 to 10
Clc1ccc(Cn2cc(-c3c[nH]c4ncccc34)nn2)cc1 [Compound A2, 3-[1-(4-chlorobenzyl)-1H-1,2,3-triazol-4-yl]-1H-pyrrolo[2,3-b]-pyridine]	1 to 10	
c1ccc(Cn2cc(-c3c[nH]c4ncccc34)nn2)cc1 [Compound A1, 3-(1-benzyl-1H-1,2,3-triazol-4-yl)-1H-pyrrolo[2,3-b]pyridine]	0.0005 to 1	
Cn1cc(-c2cnc3[nH]cc(-c4cn(C(CC(=O)O)c5ccccc5)nn4)c3c2)cn1 (centres unmarked) [Compound A28, 3-{4-[5-(1-Methyl-1H-pyrazol-4-yl)-1H-pyrrolo[2,3-b]pyridin-3-yl]-1,2,3-triazol-1-yl}-3-phenylpropionic acid]	0.0005 to 1	
Cn1cc(-c2cnc3[nH]cc(-c4cn(Cc5ccc(OC(F)F)cc5)nn4)c3c2)cn1 [Compound A36, 3-[1-(4-Difluoromethoxybenzyl)-1H-1,2,3-triazol-4-yl]-5-(1-methyl-1H-pyrazol-4-yl)-1H-pyrrolo[2,3-b]pyridine]		1 to 10
Cn1cc(-c2cnc3[nH]cc(-c4cn(Cc5cccc(Cl)c5F)nn4)c3c2)cn1 [Compound A23, 3-[1-(3-Chloro-2-fluorobenzyl)-1H-1,2,3-triazol-4-yl]-5-(1-methyl-1H-pyrazol-4-yl)-1H-pyrrolo[2,3-b]pyridine]	0.0005 to 1	0.0005 to 1
Cn1cc(-c2cnc3[nH]cc(-c4cn(Cc5cccc(OC(F)F)c5)nn4)c3c2)cn1 [Compound A39, 3-[1-(3-Difluoromethoxybenzyl)-1H-1,2,3-triazol-4-yl]-5-(1-methyl-1H-pyrazol-4-yl)-1H-pyrrolo[2,3-b]pyridine]		1 to 10
Cn1cc(-c2cnc3[nH]cc(-c4cn(Cc5ccncc5F)nn4)c3c2)cn1 [Compound A32, 3-[1-(3-Fluoropyridin-4-ylmethyl)-1H-1,2,3-triazol-4-yl]-5-(1-methyl-1H-pyrazol-4-yl)-1H-pyrrolo[2,3-b]pyridine]		1 to 10
CC(c1ccc(CO)cc1)n1cc(-c2c[nH]c3ncc(-c4cnn(C)c4)cc23)nn1 (centres unmarked) [Compound A30, [4-(1-{4-[5-(1-Methyl-1H-pyrazol-4-yl)-1H-pyrrolo[2,3-b]pyridin-3-yl]-1,2,3-triazol-1-yl}-ethyl)phenyl]methanol]	0.0005 to 1	1 to 10

Other lines, results leading:

IC50 (PDK1) [µM]	IC50 [1] [µM]	Compound
0.0005 to 1	1 to 10	Cn1cc(-c2cnc3[nH]cc(-c4cn(CC(O)c5ccccc5)nn4)c3c2)cn1 (centres unmarked) [Compound A31, 2-{4-[5-(1-Methyl-1H-pyrazol-4-yl)-1H-pyrrolo[2,3-b]pyridin-3-yl]-1,2,3-triazol-1-yl}-1-phenylethanol]
0.0005 to 1	1 to 10	Cn1cc(-c2cnc3[nH]cc(-c4cn(Cc5cccc(C(F)(F)F)c5F)nn4)c3c2)cn1 [Compound A22, 3-[1-(2-Fluoro-3-trifluoromethylbenzyl)-1H-1,2,3-triazol-4-yl]-5-(1-methyl-1H-pyrazol-4-yl)-1H-pyrrolo[2,3-b]pyridine]
	1 to 10	COc1cccc(Cn2cc(-c3c[nH]c4ncc(-c5cnn(C)c5)cc34)nn2)c1 [Compound A34, 3-[1-(3-Methoxybenzyl)-1H-1,2,3-triazol-4-yl]-5-(1-methyl-1H-pyrazol-4-yl)-1H-pyrrolo-[2,3-b]pyridine]
0.0005 to 1		COc1ccnc2[nH]cc(-c3cn(Cc4ccccc4)nn3)c12 [Compound A15, 3-(1-benzyl-1H-1,2,3-triazol-4-yl)-4-methoxy-1H-pyrrolo[2,3-b]-pyridine]
	1 to 10	Cn1cc(-c2cnc3[nH]cc(-c4cn(Cc5ccccc5CO)nn4)c3c2)cn1 [Compound A35, (2-{4-[5-(1-Methyl-1H-pyrazol-4-yl)-1H-pyrrolo[2,3-b]pyridin-3-yl]-1,2,3-triazol-1-ylmethyl}phenyl)methanol]
	1 to 10	COC(=O)c1cccc(Cn2cc(-c3c[nH]c4ncc(-c5cnn(C)c5)cc34)nn2)c1 [Compound A37, Methyl 3-{4-[5-(1-methyl-1H-pyrazol-4-yl)-1H-pyrrolo[2,3-b]pyridin-3-yl]-1,2,3-triazol-1-ylmethyl}benzoate]
0.0005 to 1	1 to 10	Cn1cc(-c2cnc3[nH]cc(-c4cn(Cc5ccc(C(F)(F)F)cc5F)nn4)c3c2)cn1 [Compound A26, 3-[1-(2-Fluoro-4-trifluoromethylbenzyl)-1H-1,2,3-triazol-4-yl]-5-(1-methyl-1H-pyrazol-4-yl)-1H-pyrrolo[2,3-b]pyridine]
	0.0005 to 1	Cn1cc(-c2cnc3[nH]cc(-c4cn(Cc5ccccc5C#N)nn4)c3c2)cn1 [Compound A38, 2-{4-[5-(1-Methyl-1H-pyrazol-4-yl)-1H-pyrrolo[2,3-b]pyridin-3-yl]-1,2,3-triazol-1-yl-methyl}benzonitrile]
0.0005 to 1	1 to 10	Cn1cc(-c2cnc3[nH]cc(-c4cn(Cc5ccc(F)cc5)nn4)c3c2)cn1 [Compound A6, 3-[1-(4-Fluorobenzyl)-1H-1,2,3-triazol-4-yl]-5-(1-methyl-1H-pyrazol-4-yl)-1H-pyrrolo-[2,3-b]pyridine]
0.0005 to 1	1 to 10	Cn1cc(-c2cnc3[nH]cc(-c4cn(Cc5ccc(F)cc5F)nn4)c3c2)cn1 [Compound A21, 3-[1-(2,4-Difluorobenzyl)-1H-1,2,3-triazol-4-yl]-5-(1-methyl-1H-pyrazol-4-yl)-1H-pyrrolo-[2,3-b]pyridine]
0.0005 to 1		CC(c1ccc(C(=O)O)cc1)n1cc(-c2c[nH]c3ncc(-c4cnn(C)c4)cc23)nn1 (centres unmarked) [Compound A27, 4-(1-{4-[5-(1-Methyl-1H-pyrazol-4-yl)-1H-pyrrolo[2,3-b]pyridin-3-yl]-1,2,3-triazol-1-yl}-ethyl)benzoic acid]
0.0005 to 1	1 to 10	Cn1cc(-c2cnc3[nH]cc(-c4cn(Cc5cccc(F)c5)nn4)c3c2)cn1 [Compound A5, 3-[1-(3-Fluorobenzyl)-1H-1,2,3-triazol-4-yl]-5-(1-methyl-1H-pyrazol-4-yl)-1H-pyrrolo-[2,3-b]pyridine]
0.0005 to 1		Cc1[nH]c2ncccc2c1-c1cn(Cc2ccccc2)nn1 [Compound A3, 3-(1-Benzyl-1H-1,2,3-triazol-4-yl)-2-methyl-1H-pyrrolo[2,3-b]pyridine]
